How the values were obtained:
Settings in all cases: 72 h
[1] = system: U2OS; assay: normalized growth rate inhibition value (GR) relative to untreated cells (GR value (dimensionless, 1 = untreated growth)); higher = less growth inhibition
Procedure: (§1)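 U2OS::Nuc-mKate2 cells seeded in 96-well plates and treated with eight- to ten-point half-log or log dilutions of drug in the presence of 50 nM SYTOX Green. Live (mKate2+) and dead (SYTOX+) cells were counted by IncuCyte STACK live-cell microscopy at 72 h; biological triplicates. GR is the normalised growth-rate inhibition value (Hafner 2016; 1 = untreated growth, <0 = population shrinking). FV is live/(live+dead) cells, not normalised.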

[2] = system: U2OS; assay: GRmin (fitted minimal GR value at highest effect) (GR value (dimensionless)); higher = less efficacious
Procedure: (§2)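 U2OS cells treated with full dose titrations of drug; live and dead cells counted by STACK microscopy (mKate2 nuclei, SYTOX Green) at 72 h, biological triplicates. GR and FV dose responses were fitted with 4-parameter logistic models (GR lower bound -1). GRADE (0-100) is the rescaled angle of a linear fit of FV versus GR at doses with GR >= 0, giving the percentage of the response due to cell death.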

[3] = system: U2OS; assay: GR50 (concentration giving GR = 0.5)
Procedure: as §2

[4] = system: U2OS; assay: fractional viability (live cells / total cells); higher = less cell death
Procedure: as §1

[5] = system: U2OS; assay: drug GRADE (percent of response due to cell death) (% (0-100)); higher = more death-driven response
Procedure: as §2

CCOc1ccccc1-n1c(C(C)N2CCN(C(=O)COc3ccc(Cl)cc3)CC2)nc2ccccc2c1=O (configuration not stated) [Erastin]
Settings	fractional viability, [4]	normalized growth rate inhibition value, [1]
0.01 µM	0.977	0.987
0.0316 µM	0.982	1
0.1 µM	0.983	0.973
0.316 µM	0.976	0.878
1 µM	0.961	0.826
3.16 µM	0.945	0.586
10 µM	0.647	0.22
31.6 µM	0.531	-0.0643

Settings	GR50 [µM]	GRmin	drug GRADE
[2]	–	-0.351	–
[3]	4.14	–	–
[5]	–	–	44.7

CC1(C)CCC(c2ccc(Cl)cc2)=C(CN2CCN(c3ccc(C(=O)NS(=O)(=O)c4ccc(N[C@H](CCN5CCOCC5)CSc5ccccc5)c(S(=O)(=O)C(F)(F)F)c4)cc3)CC2)C1 [Navitoclax]
Settings	fractional viability, [4]	normalized growth rate inhibition value, [1]
0.01 µM	0.98	0.981
0.0316 µM	0.983	1.04
0.1 µM	0.978	0.941
0.316 µM	0.978	1.02
1 µM	0.978	0.95
3.16 µM	0.972	0.94
10 µM	0.947	0.841
31.6 µM	0.887	0.891

Settings	GRmin
[2]	0.866

C[C@H]1[C@H](OC(=O)CCC(=O)O)O[C@@H]2O[C@@]3(C)CC[C@H]4[C@H](C)CC[C@@H]1[C@@]24OO3 [Artesunate]
Settings	fractional viability, [4]	normalized growth rate inhibition value, [1]
0.01 µM	0.98	1.02
0.0316 µM	0.974	0.827
0.1 µM	0.976	0.944
0.316 µM	0.972	0.928
1 µM	0.977	0.89
3.16 µM	0.971	0.814
10 µM	0.941	0.63
31.6 µM	0.779	0.178

Settings	GR50 [µM]	drug GRADE
[3]	14.7	–
[5]	–	35.4

CNC(=O)c1ccccc1Sc1ccc2c(/C=C/c3ccccn3)n[nH]c2c1 [Axitinib]
Settings	fractional viability, [4]	normalized growth rate inhibition value, [1]
0.01 µM	0.977	0.956
0.0316 µM	0.978	0.956
0.1 µM	0.97	0.887
0.316 µM	0.972	0.994
1 µM	0.956	0.822
3.16 µM	0.788	0.223
10 µM	0.949	0.733
31.6 µM	0.91	0.643

Settings	GRmin	drug GRADE
[2]	0.534	–
[5]	–	32.1

CC(=O)c1c(C)c2cnc(Nc3ccc(N4CCNCC4)cn3)nc2n(C2CCCC2)c1=O [Palbociclib]
Settings	fractional viability, [4]	normalized growth rate inhibition value, [1]
0.000317827 µM	0.992	1.08
0.00100433 µM	0.992	0.975
0.00317369 µM	0.99	0.904
0.0100289 µM	0.989	0.841
0.0316912 µM	0.989	0.721
0.100144 µM	0.984	0.769
0.316456 µM	0.988	0.639
1 µM	0.987	0.525
3.16 µM	0.972	0.398

Settings	GR50 [µM]	GRmin	drug GRADE
[2]	–	0.176	–
[3]	1.15	–	–
[5]	–	–	3.13

CC(C)NC[C@@H](C(=O)N1CCN(c2ncnc3c2[C@H](C)C[C@H]3O)CC1)c1ccc(Cl)cc1 [Ipatasertib]
Settings	fractional viability, [4]	normalized growth rate inhibition value, [1]
0.00100578 µM	0.99	0.9
0.00317827 µM	0.986	0.946
0.0100433 µM	0.986	1.14
0.0317369 µM	0.983	0.981
0.100289 µM	0.986	0.885
0.316912 µM	0.988	0.945
1.00144 µM	0.987	0.88
3.16456 µM	0.976	0.824
10 µM	0.947	0.548

Settings	drug GRADE
[5]	6.49

CC[C@]1(O)C[C@@H]2CN(CCc3c([nH]c4ccccc34)[C@@](C(=O)OC)(c3cc4c(cc3OC)N(C)[C@H]3[C@@](O)(C(=O)OC)[C@H](OC(C)=O)[C@]5(CC)C=CCN6CC[C@]43[C@@H]65)C2)C1 [Vinblastine]
Settings	fractional viability, 0.00316 µM	fractional viability, 0.0316 µM	fractional viability, 0.316 µM	fractional viability, 3.16 µM	fractional viability, 31.6 µM	normalized growth rate inhibition value, 0.00316 µM	normalized growth rate inhibition value, 0.0316 µM	normalized growth rate inhibition value, 0.316 µM	normalized growth rate inhibition value, 3.16 µM	normalized growth rate inhibition value, 31.6 µM
[1]	–	–	–	–	–	0.057	0.0629	0.0107	-0.0225	-0.258
[4]	0.426	0.5	0.467	0.416	0.166	–	–	–	–	–

Settings	drug GRADE
[5]	3.36

Cc1ccc(Nc2nccc(N(C)c3ccc4c(C)n(C)nc4c3)n2)cc1S(N)(=O)=O [Pazopanib]
Settings	fractional viability, [4]	normalized growth rate inhibition value, [1]
0.01 µM	0.98	0.995
0.0316 µM	0.986	1.04
0.1 µM	0.98	1.07
0.316 µM	0.978	1
1 µM	0.979	1.04
3.16 µM	0.978	0.915
10 µM	0.917	0.68
31.6 µM	0.763	0.431

Settings	GR50 [µM]	GRmin	drug GRADE
[2]	–	0.369	–
[3]	19.9	–	–
[5]	–	–	47.8

CS(=O)(=O)N1CCN(Cc2cc3nc(-c4cccc5[nH]ncc45)nc(N4CCOCC4)c3s2)CC1 [Pictilisib]
Settings	fractional viability, [4]	normalized growth rate inhibition value, [1]
0.00100578 µM	0.988	1.02
0.00317827 µM	0.989	0.948
0.0100433 µM	0.985	0.953
0.0317369 µM	0.985	0.837
0.100289 µM	0.975	0.872
0.316912 µM	0.96	0.842
1.00144 µM	0.936	0.628
3.16456 µM	0.844	0.306
10 µM	0.854	0.455

Settings	GR50 [µM]	GRmin	drug GRADE
[2]	–	0.374	–
[3]	1.48	–	–
[5]	–	–	30.9

CC(=O)Nc1cccc(-n2c(=O)n(C3CC3)c(=O)c3c(Nc4ccc(I)cc4F)n(C)c(=O)c(C)c32)c1 [Trametinib]
Settings	fractional viability, [4]	normalized growth rate inhibition value, [1]
0.000100578 µM	0.978	0.839
0.000317827 µM	0.974	0.677
0.00100433 µM	0.965	0.696
0.00317369 µM	0.951	0.569
0.0100289 µM	0.915	0.582
0.0316912 µM	0.732	0.319
0.100144 µM	0.524	0.0761
0.316456 µM	0.442	0.0524
1 µM	0.466	0.0402

Nc1ccc(-c2ccc3ncc4ccc(=O)n(-c5cccc(C(F)(F)F)c5)c4c3c2)cn1 [Torin2]
Settings	fractional viability, [4]	normalized growth rate inhibition value, [1]
0.000100578 µM	0.988	0.795
0.000317827 µM	0.985	0.854
0.00100433 µM	0.986	0.924
0.00317369 µM	0.988	0.826
0.0100289 µM	0.988	0.841
0.0316912 µM	0.989	0.85
0.100144 µM	0.987	0.832
0.316456 µM	0.985	0.916
1 µM	0.971	0.523

Settings	GRmin	drug GRADE
[2]	-0.853	–
[5]	–	4.29

Cc1nc(-c2cn3c(n2)-c2ccc(-c4cnn(C(C)(C)C(N)=O)c4)cc2OCC3)n(C(C)C)n1 [Taselisib]
Settings	fractional viability, [4]	normalized growth rate inhibition value, [1]
0.00100578 µM	0.987	1
0.00317827 µM	0.983	0.924
0.0100433 µM	0.979	0.852
0.0317369 µM	0.973	0.765
0.100289 µM	0.964	0.83
0.316912 µM	0.952	0.69
1.00144 µM	0.959	0.669
3.16456 µM	0.937	0.604
10 µM	0.856	0.389

Settings	GR50 [µM]	drug GRADE
[3]	4.98	–
[5]	–	24.5

Cc1nc(NC(=O)N2CCC[C@H]2C(N)=O)sc1-c1ccnc(C(C)(C)C(F)(F)F)c1 [Alpelisib]
Settings	fractional viability, [4]	normalized growth rate inhibition value, [1]
0.00100578 µM	0.986	0.96
0.00317827 µM	0.987	0.922
0.0100433 µM	0.987	0.922
0.0317369 µM	0.985	0.903
0.100289 µM	0.982	0.836
0.316912 µM	0.98	0.752
1.00144 µM	0.971	0.794
3.16456 µM	0.965	0.79
10 µM	0.938	0.693

Settings	GRmin	drug GRADE
[2]	0.695	–
[5]	–	9

COc1cc2nccc(Oc3ccc(NC(=O)C4(C(=O)Nc5ccc(F)cc5)CC4)cc3)c2cc1OC [Cabozantinib]
Settings	fractional viability, [4]	normalized growth rate inhibition value, [1]
0.00100578 µM	0.984	1.02
0.00317827 µM	0.986	0.963
0.0100433 µM	0.985	1.03
0.0317369 µM	0.981	1.07
0.100289 µM	0.979	0.938
0.316912 µM	0.977	0.954
1.00144 µM	0.968	0.843
3.16456 µM	0.917	0.443
10 µM	0.647	-0.338

Settings	GR50 [µM]	drug GRADE
[3]	2.79	–
[5]	–	9.76

Cc1cc(C(C)Nc2ccccc2)c2nc(N3CCOCC3)cc(=O)n2c1 (configuration not stated) [TGX221]
Settings	fractional viability, [4]	normalized growth rate inhibition value, [1]
0.00100578 µM	0.988	1.1
0.00317827 µM	0.986	1.06
0.0100433 µM	0.988	1.04
0.0317369 µM	0.986	1.02
0.100289 µM	0.988	0.94
0.316912 µM	0.99	1.02
1.00144 µM	0.986	0.955
3.16456 µM	0.986	1.08
10 µM	0.977	1

Settings	GRmin
[2]	0.951

O=C(O)CCNc1cc(N2CCc3ccccc3CC2)nc(-c2ccccn2)n1 [GSKJ1]
Settings	fractional viability, [4]	normalized growth rate inhibition value, [1]
0.01 µM	0.979	1.03
0.0316 µM	0.981	0.985
0.1 µM	0.98	0.962
0.316 µM	0.976	1.06
1 µM	0.985	1.02
3.16 µM	0.974	0.996
10 µM	0.975	1.01
31.6 µM	0.974	0.83

Settings	GRmin
[2]	0.339

CO[C@H]1C[C@@H]2CC[C@@H](C)[C@@](O)(O2)C(=O)C(=O)N2CCCC[C@H]2C(=O)O[C@H]([C@H](C)C[C@@H]2CC[C@@H](OCCO)[C@H](OC)C2)CC(=O)[C@H](C)/C=C(\C)[C@@H](O)[C@@H](OC)C(=O)[C@H](C)C[C@H](C)/C=C/C=C/C=C/1C [Everolimus]
Settings	fractional viability, [4]	normalized growth rate inhibition value, [1]
0.00100578 µM	0.994	0.653
0.00317827 µM	0.992	0.758
0.0100433 µM	0.991	0.721
0.0317369 µM	0.994	0.653
0.100289 µM	0.993	0.738
0.316912 µM	0.994	0.79
1.00144 µM	0.989	0.598
3.16456 µM	0.99	0.524
10 µM	0.984	0.515

Settings	GRmin	drug GRADE
[2]	-0.334	–
[5]	–	0.964

Cc1nc(Nc2ncc(C(=O)Nc3c(C)cccc3Cl)s2)cc(N2CCN(CCO)CC2)n1 [Dasatinib]
Settings	fractional viability, [4]	normalized growth rate inhibition value, [1]
0.00100578 µM	0.99	0.806
0.00317827 µM	0.988	0.867
0.0100433 µM	0.979	0.998
0.0317369 µM	0.974	0.833
0.100289 µM	0.976	0.762
0.316912 µM	0.97	0.799
1.00144 µM	0.963	0.605
3.16456 µM	0.913	0.35
10 µM	0.635	-0.105

Settings	GR50 [µM]	drug GRADE
[3]	1.68	–
[5]	–	26.7
